# How the values were obtained:
# [1] = cited from earlier work
# palmar fibroblasts = experiment: Culture force monitor: isometric force contraction of collagen gels seeded with palmar fibroblasts; format: cell-based, human; conditions: 24 h; for isometric force contraction of palmar fibroblasts: 1 ng/ml, versus PS alone, FIG. 12 / FIG. 22
# From the text: The culture force monitor (CFM) utilised and culture conditions are shown in FIGS. 3A to 3E: (A) Rectangular seeded collagen gels were cast and floated in medium, tethered between two flotation bars one of which is held stationary whilst the other is attached to a force transducer. (B) Cell-generated tensional forces in the collagen gel are detected by the force transducer, and live data are logged every 15 seconds providing a continuous output of force (dynes, […]) generated. (C) After 24 hour contraction, gels are harvested and processed for α-SMA mRNA, protein and immunofluorescence. (D) Cells were routinely seeded in gels with a high aspect-ratio collagen lattice, although low aspect-ratio lattices (E) were also used in experiments to compare effects of less strain on cell contractility. […]
# Collagen gels seeded with palmar fibroblasts were cultured for 24 h with supernatants from AGE-(100 μg/ml) stimulated monocytes (M) in the absence or presence of anti TNF-α (10 μg/ml) and isometric force contraction quantified. Experiments were performed in duplicate. […]
# [2] = system: non-palmar dermal fibroblasts; experiment: Culture force monitor: contraction rate of non-palmar dermal fibroblasts; format: cell-based, human; conditions: 1 ng/ml; 24 h; one patient; FIG. 22
# From the text: The culture force monitor (CFM) utilised and culture conditions are shown in FIGS. 3A to 3E: (A) Rectangular seeded collagen gels were cast and floated in medium, tethered between two flotation bars one of which is held stationary whilst the other is attached to a force transducer. (B) Cell-generated tensional forces in the collagen gel are detected by the force transducer, and live data are logged every 15 seconds providing a continuous output of force (dynes, […]) generated. (C) After 24 hour contraction, gels are harvested and processed for α-SMA mRNA, protein and immunofluorescence. (D) Cells were routinely seeded in gels with a high aspect-ratio collagen lattice, although low aspect-ratio lattices (E) were also used in experiments to compare effects of less strain on cell contractility.
# We then compared the effect of TNF-α on the rate of contraction on palmar skin and non-palmar skin from a Dupuytren's patient. Collagen gels seeded with palmar fibroblasts were cultured for 24 h in the absence (PS or NPS alone) or presence of TNF-α (1 ng/ml). Data are shown as +/−SD from triplicate experiments using cells from 3 patients for palmar skin and one patient non-palmar skin (**p=0.0012, ns=not significant). […]
# human monocytes = experiment: TNF-α production by human monocytes (ELISA); format: cell-based
# Method: LPS, a pathogen associated molecular pattern (PAMP) is shown as positive control.
# The known receptors for S100A8 are the receptor for advanced glycation end products (RAGE) and the Toll-like receptors 2 and 4. Human monocytes at 1×10^5/ml were incubated in 10% FCS with human S100 A8 at 0.5 with the addition of either antibody to TLR4, TLR2 or isotype controls (not shown), or soluble RAGE (sRAGE)) over 14 hours. TNF-α levels were determined by ELISA.
# It is more difficult to show in vitro that HMGB1 also acts on monocytes to lead to pro-inflammatory cytokine release. […] Our experiment, the results of which are shown in FIG. 18, involved human monocytes at 1×10^5/ml incubated in 10% FCS with HMGB1 or LPS alone or together at concentrations shown over 14 hours. TNF-α levels were determined by ELISA.
# murine bone marrow cells = experiment: TNF-α production by murine bone marrow cells (wild type, TLR4-/-, MyD88-/-) by ELISA; format: cell-based; conditions: TLR4-/- and MyD88-/- mice, FIG. 17
# Method: In FIG. 17, TNF-α produced by murine bone marrow cells of wild type, TLR4^−/− and MyD88^−/− mice on exposure to murine S100A8 were measured by ELISA.
# [3] = phase III clinical trial, Hurst et al 2009
# [4] = exposure to alarmin over tested range, FIG. 15
molecule,measurement,setting,value
"bacterial collagenase: bacterial (Clostridial) collagenase for enzymatic fasciotomy, FDA approved as Xiaflex",recurrence rates in patients with PIPJ contractures,"[1]; 2 years follow-up, Badalamente et al 2007",57%
same,MCPJ contractures effectively treated (to within 5° of full extension),[1]; [3],77%
same,PIPJ contractures effectively treated (to within 5° of full extension),[1]; [3],40%
TGF-β1: cytokine that leads to development of the myofibroblast phenotype,palmar fibroblast contractility,"palmar fibroblasts; 10 ng/ml, compared to untreated palmar fibroblasts, p=0.0001, FIG. 12",significant increased palmar fibroblast contractility
same,contractility of human palmar fibroblasts in collagen lattice under isometric conditions,"palmar fibroblasts; TGF-β1, cells from 3 patients, FIG. 21",enhanced contractility
AGEs,palmar fibroblast contraction with supernatants from AGE-stimulated monocytes,"palmar fibroblasts; AGE 100 μg/ml stimulated monocyte supernatant, absence or presence of anti TNF-α 10 μg/ml, FIG. 20",stimulated palmar fibroblast contraction in a TNF-α dependent manner
same,contractility of palmar dermal fibroblasts,"palmar fibroblasts; AGEs-BSA 150 μg/ml, FIG. 14",not affected
TNF-α,contraction rate of non-palmar dermal fibroblasts,[2],"no change, or a slight reduction, in contraction rate"
same,isometric force contraction of palmar fibroblasts,palmar fibroblasts,significantly enhanced contraction
"S100A8: Alarmin (DAMP) protein, human",TNF-α production by human monocytes,human monocytes; [4],produced TNF-α in a dose dependent manner
same,receptor mediating TNF-α production by human monocytes,"human monocytes; human S100 A8 at 0.5 with antibody to TLR4, TLR2 or soluble RAGE, 14 hours, FIG. 16",TLR-4 and not RAGE or TLR-2
same,relative activity in TNF-α production by human monocytes,"human monocytes; within the tested range, FIG. 15",more active than S100A9 and S100A12
"murine S100A8: murine Alarmin S100A8 (protein, UniProt P27005 2-89, looked up) Protein S100-A8: PSELEKALSNLIDVYHNYSNIQGNHHALYKNDFKKMVTTECPQFVQNINIENLFRELDINSDNAINFEEFLAMVIKVGVASHKDSHKE",receptor/signalling dependence of TNF-α production,murine bone marrow cells,predominantly binds to TLR-4 and that the intracellular signalling leading to TNF-α production by monocytes is entirely dependent on adaptor protein MyD88
"HMGB1: high mobility group box protein, an Alarmin (DAMP) (protein, UniProt P09429 1-215, looked up) High mobility group protein B1: MGKGDPKKPRGKMSSYAFFVQTCREEHKKKHPDASVNFSEFSKKCSERWKTMSAKEKGKFEDMAKADKARYEREMKTYIPPKGETKKKFKDPNAPKRPPSAFFLFCSEYRPKIKGEHPGLSIGDVAKKLGEMWNNTAADDKQPYEKKAAKLKEKYEKDIAAYRAKGKPDAAKKGVVKAEKSKKKKEEEEDEEDEEDEEEEEDEEDEDEEEDDDDE",TNF-α production by human monocytes,"human monocytes; HMGB1 alone, 14 hours, FIG. 18",does not stimulate TNF-α production by monocytes
same,TNF-α production by human monocytes,"human monocytes; HMGB1 together with LPS, 14 hours, FIG. 18",active in combination with LPS
same,isometric force contraction of palmar fibroblasts,palmar fibroblasts,"trend towards increased contraction resulting from HMGB1, this was not statistically significant"
"S100A9: Alarmin (DAMP) protein (protein, UniProt P06702 1-114, looked up) Protein S100-A9: MTCKMSQLERNIETIINTFHQYSVKLGHPDTLNQGEFKELVRKDLQNFLKKENKNEKVIEHIMEDLDTNADKQLSFEEFIMLMARLTWASHEKMHEGDEGPGHHHKPGLGEGTP",TNF-α production by human monocytes,human monocytes; [4],to some extent

# Reference: patent US10669334B2, “Treatment for Dupuytren's disease” (Oxford University Innovation Limited, priority 2010, dated 2020)
